Measured values taken from patent publication US20050009748A1, “Compositions for delivering peptide YY and PYY agonists” (Emisphere Technologies, Inc., priority 2003, published 2005).
“And” between values parts separate entries of the source, which are not always exact repeats. Equal entries are not always repeated.

Tests used:
[1] = Solid oral delivery of PYY[3-36] in feed restricted rats (serum PYY radioimmunoassay); assay type: in vivo, Male Sprague Dawley rats; conditions: 1 tablet per animal
Method: An oral dosing tube was used.
Blood samples were collected serially from the tail artery, by cardiac puncture, or as in this case by retro-orbitally, typically at time=0, 15, 30, 60 and 90 minutes.

[2] = Liquid oral delivery of PYY[3-36] in rats (oral gavage, serum PYY[3-36] radioimmunoassay); assay type: in vivo, Male Sprague-Dawley rats; conditions: oral gavage solution, Delivery Agent 200 mg/kg, PYY[3-36] 0.3 mg/kg, 1 ml/kg
Method: SNAC monosodium salt, solid was dissolved in water. The pH of this solution was close to pH 7.5, so no pH adjustments were done. […] The final pH of these solutions was 7.5.
The pH was then lowered to 7.7 by adding HCl (5N). […] The final pH of these solutions varied between 7.5 and 7.6.
Each delivery agent compound (as the free acid or monosodium salts) was dissolved in water. The pH was adjusted to approximately 7.5 by adding HCl (5N) and NaOH (5N) as needed. […] The final pH of these solutions was approximately 7.5.
The typical dosing and sampling protocols were as follows. Male Sprague-Dawley rats weighing between 240-320 g were fasted up to a maximum 24 hours before the experiments and administered ketamine (44 mg/kg) and thorazine (1.5 mg/kg) by intramuscular injection before the test article administration. Afterwards, the anesthetized animals were administered the test article by oral gavage. A dosing group of five animals was administered one of the dosing solutions. For oral gavage (PO), an 11 cm Rusch 8 French catheter was adapted to a 1 ml syringe with a pipette tip. The syringe was filled with dosing solution by drawing the solution through the catheter, which was then wiped dry. The catheter was placed down the esophagus leaving 1 cm of tubing past the incisors. The dosing solution was administered by pressing the syringe plunger.
Blood samples were collected serially from the tail artery, or by cardiac puncture, typically at time=0, 15, 30, 45, 60 and 90 minutes. […] Results from the animals in each group were averaged for each time point.

[3] = rats, end of 7-day study, food found in the stomachs
Method: Food was removed prior to dosing and returned 30 minutes after dosing.
An oral dosing tube was used. The dosing tube was inserted into the rat's mouth and carefully threaded down the rats pharynx and esophagus about 8 cm to about 15 cm depending on the weight of the rat (typically about 11 cm). The solid dosage form was delivered into the distal esophagus and/or stomach by pressing the plunger of the oral dosing tube.
Food consumption was determined every 24 hours from the weight difference between the food given to and food left over by each rat. The body weight of each rat was determined every 24 hours.

[4] = Delivery Agent 100 mg/kg, PYY[3-36] 0.3 mg/kg
[5] = Delivery Agent 50 mg/kg, PYY[3-36] 0.3 mg/kg

Q: For `COc1ccc(C(=O)NCCCCCCCC(=O)O)c(O)c1` [Delivery Agent 4, 8-(2-hydroxy-4-methoxybenzoylamino)octanoic acid], which “Mean serum peak of PYY (pg/ml) ± SD” value [1, 4] is on record?
A: The value was 1821.82 ± 1513.84 pg/mL.

Q: And the “Mean Peak Serum [PYY(3-36)] (pg/ml) ± SD” value [2]?
A: Its value is 830.246 ± 71.382 pg/mL.

Q: For `O=C(O)CCCCCCCNC(=O)c1c(O)cccc1O` [Delivery Agent 5, 8-(2,6-dihydroxybenzoylamino)octanoic acid], which “Mean Peak Serum [PYY(3-36)] (pg/ml) ± SD” value [2] is on record?
A: Its value is 800.318 ± 40.61 pg/mL.

Q: Which “Mean Peak Serum [PYY(3-36)] (pg/ml) ± SD” value [2] does the source give for `O=C(O)CCCCCCCNC(=O)c1cc(Br)ccc1O` [Delivery Agent 6, 8-(2-hydroxy-5-bromobenzoylamino)octanoic acid] here?
A: The value was 812.946 ± 53.616 pg/mL.

Q: What does the source list for `O=C(O)CCCCCCCNC(=O)c1cc(Cl)ccc1O` [Delivery Agent 7, 8-(2-hydroxy-5-chlorobenzoylamino)octanoic acid]?
A: Mean serum peak of PYY (pg/ml) ± SD [1, 5]: 725.96 ± 110.78 pg/mL; Mean serum peak of PYY (pg/ml) ± SD ([1]; Delivery Agent 100 mg/kg, PYY[3-36] 0 mg/kg (delivery agent alone)): 14.35 ± 19.71 pg/mL; Mean serum peak of PYY (pg/ml) ± SD [1, 4]: 1064.18 ± 363.8 pg/mL; Mean Peak Serum [PYY(3-36)] (pg/ml) ± SD [2]: 663.472 ± 135.394 pg/mL

Q: For `O=C(O)CCCCCCCNC(=O)c1cc(I)ccc1O` [Delivery Agent 8, 8-(2-hydroxy-5-iodobenzoylamino)octanoic acid], which “Mean Peak Serum [PYY(3-36)] (pg/ml) ± SD” value [2] is on record?
A: The value was 276.82 ± 425.45 pg/mL.

Q: For `Cc1ccc(O)c(C(=O)NCCCCCCCC(=O)O)c1` [Delivery Agent 9, 8-(2-hydroxy-5-methylbenzoylamino)octanoic acid], which “Mean serum peak of PYY (pg/ml) ± SD” value [1, 4] is on record?
A: Its value is 1309.8 ± 836.33 pg/mL.

Q: And the “Mean Peak Serum [PYY(3-36)] (pg/ml) ± SD” value [2]?
A: The value was 732.912 ± 266.578 pg/mL.

Q: Which “Mean serum peak of PYY (pg/ml) ± SD” value [1, 5] does the source give for `O=C(O)CCCCCCCNC(=O)c1cc(F)ccc1O` [Delivery Agent 10, 8-(2-hydroxy-5-fluorobenzoylamino)octanoic acid] here?
A: The value was 897.18 ± 549.5 pg/mL.

Q: What about the “Mean Peak Serum [PYY(3-36)] (pg/ml) ± SD” value [2] of the same compound?
A: The value was 846.416 ± 55.993 pg/mL.

Q: Which “Mean Peak Serum [PYY(3-36)] (pg/ml) ± SD” value [2] does the source give for `O=C(O)CCCCCCCOc1cccc(O)c1` [Delivery Agent 12, 8-(3-hydroxyphenoxy)octanoic acid] here?
A: The value was 845.682 ± 69.846 pg/mL and 1047.46 ± 36.93 pg/mL.

Q: With `O=C(O)CCCCCCCOc1ccc(O)cc1` [Delivery Agent 13, 8-(4-hydroxyphenoxy)octanoic acid] as the compound, how does the “Mean Peak Serum [PYY(3-36)] (pg/ml) ± SD” value [2] read?
A: The value was 826.48 ± 379.12 pg/mL.

Q: For `N#Cc1ccccc1OCCCCCC(=O)O` [Delivery Agent 14, 6-(2-cyanophenoxy)hexanoic acid], which “Mean Peak Serum [PYY(3-36)] (pg/ml) ± SD” value [2] is on record?
A: Its value is 913.536 ± 33.688 pg/mL and 1083.38 ± 78.878 pg/mL.

Q: For `O=C(O)CCCCCCCOc1ccc(O)cc1` [Delivery Agent 17, 8-(4-hydroxyphenoxy)octanoate], which “Mean serum peak of PYY (pg/ml) ± SD” value ([1]; Delivery Agent 100 mg/kg, PYY[3-36] 0.3 mg/kg, listed as 17) is on record?
A: The value was 897.18 ± 549.5 pg/mL.

Q: What does the source list for `O=C(O)CCCCCCCOc1ccc(O)cc1` [Delivery Agent 18, 8-(4-hydroxyphenoxy)octanoate]?
A: Mean serum peak of PYY (pg/ml) ± SD [1, 5]: 940.33 ± 1090.65 pg/mL; Mean serum peak of PYY (pg/ml) ± SD [1, 4]: 1216.13 ± 661.31 pg/mL

Q: With PYY[3-36] as the compound, how does the “effect on gastric emptying” value [3] read?
A: Its value is “no effect on gastric emptying”.
